Results as given in BigSolDB 2.1.

COc1cc2c(cc1OC)C(=O)CC2
solubility (mole fraction)
Settings | 283.15 K | 288.15 K | 293.15 K | 298.15 K | 303.15 K | 308.15 K | 313.15 K | 318.15 K | 323.15 K
in 2-butanone | 0.0514 | 0.0623 | 0.0746 | 0.0891 | 0.105 | 0.125 | 0.149 | 0.177 | 0.208
in acetone | 0.0486 | 0.0596 | 0.071 | 0.0834 | 0.101 | 0.122 | 0.146 | 0.173 | 0.2
in ethanol | 0.00826 | 0.0112 | 0.0141 | 0.0193 | 0.0242 | 0.0317 | 0.0412 | 0.0519 | 0.0636
in ethyl acetate | 0.0389 | 0.0492 | 0.059 | 0.0697 | 0.0842 | 0.101 | 0.122 | 0.147 | 0.171
in isobutanol | 0.0123 | 0.0161 | 0.0212 | 0.0288 | 0.0385 | 0.0493 | 0.0646 | 0.0806 | 0.102
in isopropanol | 0.00596 | 0.00802 | 0.0108 | 0.0146 | 0.0198 | 0.0269 | 0.0354 | 0.0455 | 0.0588
in isopropyl acetate | 0.0264 | 0.0329 | 0.0396 | 0.0485 | 0.0581 | 0.0691 | 0.0801 | 0.0933 | 0.11
in methanol | 0.0097 | 0.0124 | 0.0171 | 0.0238 | – | – | – | – | –
